Results: US7279172B2, “Treatment of autoimmune conditions with copolymer 1 and related copolymers” (priority 1998, dated 2007)
“Also recorded” adds a separate entry of the source.

How the values were obtained:
mice = assay: Toxicity test in mice (i.v. injection, 48 hour observation); format: in vivo
Procedure: Three batches of copolymer-1 having an average molecular weight of 7.3 and 8.4 KDa (less than 2.5% copolymer-1 species over 40KDa) and 22KDa (more than 5% copolymer-1 species over 40KDa) were subjected to the toxicity test described below. Five mice were used in each experimental group.
Copolymer-1 is dissolved in distilled water to yield a solution of 2 mg/ml of the active ingredient. Each mouse is injected with 0.5 ml of the test solution into the lateral tail vein. […] Observations were recorded 10 minutes, 24 hours and 48 hours post-injection. If, at the end of 48 hours, all the animals were alive and no adverse signs had been observed, then the batch is designated “non-toxic”. If, however, one or more of the mice had died or had shown adverse signs, then the batch is designated “toxic”.

[1] = system: Rat Basophilic Leukemia cells (RBL-2Ho); assay: In vitro Rat Basophilic Leukemia cell degranulation test ([3H]-serotonin release); format: cell-based; details: 100 μg
Source text: Histamine (or serotonin) release from basophile is an in vitro model for immediate hypersensitivity. The Rat Basophilic Leukemia cell line, RBL-2Ho, is uniform and easy to maintain in culture but is a highly sensitive and reproducible system for testing for degranulation. E. L. Basumian, et al., 11 EUR. J. IMMUNOL. 317 (1981). The physiological stimulus for histamine release involves binding of the antigen to membrane-bound IgE molecules, which triggers an intricate biochemical cascade. Degranulation is induced by non-IgE-mediated stimuli, including various peptides and synthetic polymers, e.g. polylysine. R. P. Siraganian, TRENDS IN PHARM[…] 432 (October 1983). The RBL degranulation test is, therefore, used to screen out those batches of COP-1 which evoke substantial degranulation and thus might elicit undesirable local and/or systemic side effects.
Rat Basophilic Leukemia cells (RBL-2Ho), are loaded with [H^3]-serotonin, followed by incubation with 100 μg of the COP-1 to be tested. Batches of COP-1 which induce non-specific degranulation, release [H^3]-serotonin into the medium. The radioactivity in the medium is counted by a scintillation counter and the total radiolabeled serotonin incorporated into the cells is determined in the pelleted cells. Percent degranulation is calculated as the percentage of serotonin released out of the total incorporated.

[2] = system: experimental allergic encephalomyelitis (EAE); assay: EAE suppression by injection with incomplete adjuvant; format: in vivo, (SJL/J×BALB/c)FI mice
HLA-DR1 [3] = molecular target: T1, HLA-DR1 (Homo sapiens, UniProt P01903+P01911, A100R/D57E/F55L/F60I/F76Y/I96L/L162R/M171V/P40L/Q125E/R42F/V115G/Y59C); assay: Competitive inhibition of biotinylated Copolymer 1 binding to HLA-DR1
HLA-DR2 [4] = molecular target: T2, HLA-DR2 (Homo sapiens, UniProt P01903+P01911); assay: Competitive inhibition of biotinylated Copolymer 1 binding to HLA-DR2; details: vs 1.5 μM biotinylated Copolymer 1, pH 5.0, 40 hr 37° C.
HLA-DR4 [5] = molecular target: T3, HLA-DR4 (Homo sapiens, UniProt P01903+P01911, A100K/A169T/F76Y/I96L/K127E/L162R/M171V/N62H/P40V/Q125Y/R42H/S133A/S149N/S66Y/V115G/V209L/W38E); assay: Competitive inhibition of biotinylated Copolymer 1 binding to HLA-DR4
[6] = system: T cells specific for the MBP 84-102 antigen; assay: Inhibition of MBP-induced T cell proliferation; format: cell-based, mouse, human
WCB AB line = assay: IL-2 secretion from WCB AB line; details: for % Inhibition of IL-2 secretion: 2μM p259
[7] = system: experimental allergic encephalomyelitis (EAE); assay: EAE suppression by oral administration; details: Lewis rats fed 5 mg/kg; mean maximal score for the entire group, 0-5 scale
HLA-DR1 [8] = molecular target: T1, HLA-DR1; assay: Binding of biotinylated polypeptides to purified HLA-DR1
HLA-DR2 [9] = molecular target: T2, HLA-DR2; assay: Binding of biotinylated polypeptides to purified HLA-DR2
HLA-DR4 [10] = molecular target: T3, HLA-DR4; assay: Binding of biotinylated polypeptides to purified HLA-DR4
mouse spleen macrophages = assay: Binding of biotinylated polypeptides to living antigen presenting cells (FACS), mouse; details: 50 μg biotinylated polypeptide, 37° C. for 20 hr
[11] = system: human EBV transformed B-cell line; assay: Binding of biotinylated polypeptides to living antigen presenting cells (FACS), human; details: 50 μg biotinylated polypeptide, 37° C. for 20 hr; DR7,w11 haplotype
[12] = mice, 10 mg/mouse subcutaneously in ICFA, EAE induced 3 weeks later
[13] = vs 1.5 μM biotinylated Copolymer 1, pH 5.0, 40 hr 37° C.

## Copolymer 1 [reference compound]
mice; Copolymer 1 batch of 7.3 KDa average molecular weight
  batch designation toxic / non-toxic: non-toxic
mice; Copolymer 1 batch of 8.4 KDa average molecular weight
  batch designation toxic / non-toxic: non-toxic
mice; Copolymer 1 batch of 22 kDa average molecular weight
  batch designation toxic / non-toxic: toxic
mice; Copolymer 1 batch of 22 kDa average molecular weight, 0.5 ml of 2 mg/ml into lateral tail vein, five mice
  mice died after 48 hours: Three of five
[1]; Copolymer 1 batch Average M.W. 6,250, <2.5% species over 40 KDa
  % Serotonin Release: 12.4%
[1]; Copolymer 1 batch Average M.W. 7,300, <2.5% species over 40 KDa
  % Serotonin Release: 21.0%
[1]; Copolymer 1 batch Average M.W. 13,000, >5% species over 40 KDa
  % Serotonin Release: 66.9%
[1]; Copolymer 1 batch Average M.W. 14,500, >5% species over 40 KDa
  % Serotonin Release: 67.8%
[2]; injection in ICFA prior to induction of EAE
  EAE suppression (in words): greatest EAE suppression
[2]; [12]
  Incidence: 2/11
  Suppression % Incidence: 82.0%
  Suppression % MMS: 89.0%
[2]; mice, 10 mg/mouse subcutaneously in ICFA, EAE induced 3 weeks later, 0-5 scale
  MMS (Mean Maximal Score): 0.45
HLA-DR1 [3]; unlabeled inhibitor
  inhibition of binding of biotinylated Copolymer 1 to HLA-DR1 (in words): efficiently inhibited
HLA-DR1 [3]; [13]
  IC50: 8.8 µM
HLA-DR2 [4]
  IC50: 10.1 µM
HLA-DR4 [5]; unlabeled inhibitor
  inhibition of binding of biotinylated Copolymer 1 to HLA-DR4 (in words): efficiently inhibited
HLA-DR4 [5]; [13]
  IC50: 10.8 µM
[6]; polypeptide added with stimulating MBP antigen
  inhibition of proliferation of T cells exposed to MBP 84-102 antigen (in words): significantly inhibited the proliferation
[6]; polypeptide as antigen
  stimulation of proliferation of T cells specific for the 84-102 peptide of MBP (in words): did not stimulate proliferation
WCB AB line; Cop1 20 μM
  % Inhibition of IL-2 secretion: 73%
WCB AB line; Cop1 60 μM
  % Inhibition of IL-2 secretion: 88%
WCB AB line; Cop1 100 μM
  % Inhibition of IL-2 secretion: about 91%
WCB AB line; Cop1 100 μM, listed as Cop1
  % Inhibition of IL-2 secretion: 91%
WCB AB line; Copolymer 1 incubated with the p259 peptide
  inhibition of p259-induced T cell secretion of IL-2 (in words): inhibited in a dose-related fashion
[7]
  MMS ± SD: 0.78 ± 0.45
HLA-DR1 [8]; detergent-soluble HLA-DR1
  binding to HLA-DR1, comparison / order of binding capacity (in words): better than that of GAL, TGA or GTL; also recorded: Copolymer 1>TAL>GTL>TGA>>GAL
HLA-DR1 [8]; read-out: Kd DR1, detergent-soluble HLA-DR1, pH 5.0, 40 hr 37° C., from slope of double reciprocal plot
  Kd: 0.074 µM
HLA-DR2 [9]; detergent-soluble HLA-DR2
  binding to HLA-DR2, comparison / order of binding capacity (in words): bound better than the other polypeptides; also recorded: Copolymer 1>GTL>TAL>GAL>TGA
HLA-DR2 [9]; read-out: Kd DR2, detergent-soluble HLA-DR2, pH 5.0, 40 hr 37° C., from slope of double reciprocal plot
  Kd: 0.082 µM
HLA-DR4 [10]; detergent-soluble HLA-DR4
  binding to HLA-DR4, comparison / order of binding capacity (in words): better than that of GAL, TGA or GTL; also recorded: TAL>Copolymer 1>>TGA>GTL>GAL
HLA-DR4 [10]; read-out: Kd DR4, detergent-soluble HLA-DR4, pH 5.0, 40 hr 37° C., from slope of double reciprocal plot
  Kd: 0.015 µM
Mouse spleen macrophages
  % Binding: 85%
  MFI (Mean Fluorescence Intensity): 493
[11]
  % Binding: 96%
  MFI (Mean Fluorescence Intensity): 727
